Measurements as given in patent publication US5030624A, “R-diastereomer of an N^6 -[(2-hydroxypropyl)aryl]adenosine and its medicinal uses” (G. D. Searle & Co., priority 1988, dated 1991).
Entries after “also recorded” stand apart in the source; their conditions may differ.

Key:
[1] = system: plasma renin activity (PRA); experiment: Change in plasma renin activity (PRA) in the bilateral renal artery ligated rat; type: in vivo, rat (Sprague-Dawley); conditions: 1 mg/kg I.V.; for prevention of PRA increases / inhibition of renin release (in words): 30 and 60 minutes; for CHANGE IN PRA: ^+ different from vehicle, p < .05
Procedure: Adenosine Al receptor stimulation will inhibit the release of renin from the kidney. A stimulus for the release of renin is renal ischemia. The ability of the compounds of the present invention to prevent an increase in PRA following renal ischemia was tested in rats with both renal arteries ligated. Sprague-Dawley rats were anesthetized with ether and the renal arteries were ligated. Three to five hours after anesthesia, arterial blood was sampled and compounds I and II were administered in polyethylene glycol at 1 mg/kg I.V. At 30 and 60 minutes after administration, arterial blood was sampled for PRA measurement by the method of Sealy, J. E. et al., Cardiovasc. Med. 2:1079, 1977.

mice [2] = experiment: Behavioral toxicity at various times in mice; type: in vivo; on MOTOR DEPRESSION: key: +: toxic symptom observed; +*: toxic symptom observed; *2/7; on PTOSIS: key: +: toxic symptom observed; +*: toxic symptom observed; *2/7; on RESPIRATORY DEPRESSION: key: +: toxic symptom observed; +*: toxic symptom observed; *2/7; on loss of righting reflex: key: +: toxic symptom observed; +*: toxic symptom observed; *2/7
Procedure: The mice had previously been trained to remain on a rotating rod. After dosing, the percent of mice unable to remain on the rotating rod was determined. […] The mice were also observed at various time intervals for behavioral signs of toxicity.

[3] = system: adenosine Al receptor in the granular juxtaglomerular cells of the kidney; conditions: Federation Proceedings 44:879 & 1643, 1985; cited from earlier work
hypertensive models = conditions: Federation Proceedings 44:879 & 1643, 1985; cited from earlier work
[4] = Solubility of the separated diastereomers; type: physicochemical; conditions: for solubility in MeOH (in words): S isomer and R isomer compared
[5] = system: spontaneously hypertensive rats (SHR); experiment: Effects on MAP and HR in conscious spontaneously hypertensive rats (SHR), I.V. or intragastric; type: in vivo, rat
Procedure: The effects of compounds I and II were tested intravenously or intragastrically in conscious spontaneously hypertensive rats (SHR). The rats were anesthetized with ether and the left carotid artery and right jugular vein were cannulated with polyethylene tubing. The rats were allowed three to five hours recovery from anesthesia for the I.V. studies and 12 to 18 hours for the oral studies. Mean arterial pressure (MAP, in mm/Hg) and heart rate (HR, beats/min.) were measured from the artery; intravenous administration of compounds was performed by injection into the vein. Oral administration was performed by gastric intubation. Compounds were dissolved in DMSO for I.V. studies and injected in volumes of 100 μl/kg or less (N=5 per compound). Doses were 3 to 1,000 μg/kg. Compounds were dissolved in polyethylene glycol for oral administration and injected in volumes of 1 ml/kg at a dose of 20 mg/kg/day for three days (N=3 to 6 per compound).
The resting MAP and HR for the SHR ranged between 160-200 mm Hg and 330/350 b/min., respectively.
Thus, the effects of the three compounds on MAP and HR were indistinguishable both by I.V. and oral administration.

mice [6] = experiment: Ataxia on rotating rod in mice; type: in vivo; conditions: ip, 0.5 or 3 hours
Procedure: Adenosine analogs tend to produce sedation and central nervous system depression which have prevented their therapeutic utility. The compounds of the invention, at doses which lower arterial pressure in the SHR, show no evidence of CNS depression. The ataxia produced by compounds of the present invention was measured in mice by injecting the compounds IP at doses of 32, 56, or 75 mg/kg in an aqueous suspension, n=7 per dose. The mice had previously been trained to remain on a rotating rod. After dosing, the percent of mice unable to remain on the rotating rod was determined. […] The mice were also observed at various time intervals for behavioral signs of toxicity.

[7] = SHR, 20 mg/kg/day intragastric, day 2 of oral administration, N=3 to 6

Compound	prevention of PRA increases / inhibition of renin release (in words) [1]	toxicity (in words) (mice [2]; 18-20 hours, 75 mg/kg ip)	MOTOR DEPRESSION (mice [2]; 0.5 hr, 75 mg/kg ip)	PTOSIS (mice [2]; 0.5 hr, 75 mg/kg ip)	RESPIRATORY DEPRESSION (mice [2]; 0.5 hr, 75 mg/kg ip)	MOTOR DEPRESSION (mice [2]; 3 hr, 75 mg/kg ip)	PTOSIS (mice [2]; 3 hr, 75 mg/kg ip)	RESPIRATORY DEPRESSION (mice [2]; 3 hr, 75 mg/kg ip)	solubility in MeOH (in words) [4]	further results
OC[C@H]1O[C@@H](n2cnc3c(NCC(O)COc4cccc5ccccc45)ncnc32)[C@H](O)[C@@H]1O (mixture of isomers) [Compound I, N(6)-[2-hydroxy-3-(1-naphthyloxy)propyl]-adenosine]	prevented to the same extent	still producing several of the toxic symptoms	+	+	+	+	+	+		FLACCIDITY, animals affected (footnote) (mice [2]; 18-20 hr, 75 mg/kg ip): 2/7; MOTOR DEPRESSION (mice [2]; 18-20 hr, 75 mg/kg ip): +; PTOSIS (mice [2]; 18-20 hr, 75 mg/kg ip): +; RESPIRATORY DEPRESSION (mice [2]; 18-20 hr, 75 mg/kg ip): +; toxicity (in words) (mice [2]; 3 hours, 75 mg/kg ip): flaccidity and loss of righting reflex; FLACCIDITY (mice [2]; 3 hr, 75 mg/kg ip): +; LOSS OF RIGHTING REFLEX (mice [2]; 3 hr, 75 mg/kg ip): +; binding to the adenosine Al receptor, inhibition of renin release (in words) [3]: binds to the adenosine Al receptor in the granular juxtaglomerular cells of the kidney to inhibit release of renin into the plasma; arterial blood pressure and heart rate (in words) (hypertensive models): reducing arterial blood pressure and heart rate in hypertensive models
OC[C@H]1O[C@@H](n2cnc3c(NC[C@H](O)COc4cccc5ccccc45)ncnc32)[C@H](O)[C@@H]1O [S isomer]									less soluble in MeOH	
OC[C@H]1O[C@@H](n2cnc3c(NC[C@@H](O)COc4cccc5ccccc45)ncnc32)[C@H](O)[C@@H]1O [Compound II, N^6-[2R-hydroxy-3-(1-naphthalenyloxy)propyl]-adenosine]	prevented to the same extent	no toxicity was observed	+	+	+	+	+	+	more soluble in MeOH	ED (HR decrease by 100 b/min) ([5]; Rattus norvegicus, iv, conscious SHR, I.V. in DMSO, N=5 per compound, read-out: IV DOSE TO DECREASE HR by 100 b/min): 0.031 ± 0.0014 mg/kg; ED (MAP decrease by 40 mmHg) ([5]; Rattus norvegicus, iv, conscious SHR, I.V. in DMSO, N=5 per compound, read-out: IV DOSE TO DECREASE MAP by 40 mmHg): 0.033 ± 0.0012 mg/kg; MAXIMUM DECREASE AT 20 MG/KG ig: HR [5, 7]: 177 ± 19 b/min; MAXIMUM DECREASE AT 20 MG/KG ig: MAP [5, 7]: 50 ± 14 mmHg; CHANGE IN PRA ([1]; 30 minutes after dosing): -6.6 ngAI/ml/hr; CHANGE IN PRA ([1]; 60 minutes after dosing): -6.3 ngAI/ml/hr; ataxia / motor toxicity (in words) (mice [6]): less ataxia at 0.5 or 3 hours as compared to compound I; also recorded: less motor toxicity than compound I; overall toxicity compared with compound I (in words) (mice [2]; mice, ip, ataxia and behavioral toxicity): substantially less toxic than compound I; also recorded: unexpectedly less toxic than compound I, both with regard to ataxia and behavioral toxicity; also recorded: less central nervous system toxicity than the racemic mixture; solubility (in words) ([4]; R diastereomer, solvent not stated): different solubility
